Reference: patent US11944614B2, “Imidazo[4,5-c]pyridine compounds as LSD-1 inhibitors” (THE REGENTS OF THE UNIVERSITY OF MICHIGAN, priority 2018, dated 2024)

Target: Human recombinant LSD1 protein (Homo sapiens (Human), UniProt O60341)
Assay: LSD1 enzymatic activity, AlphaLISA demethylation assay
Format: biochemical
Settings: 4 nM LSD1, 80 nM Biotin-H3K4Me peptide substrate, 1% DMSO, 60 minutes reaction
Procedure: Human recombinant LSD1 protein expressed in E. coli cells was purchased from Active Motif (Carlsbad, Calif.). Biotin-labeled Histone H3K4Me peptide (residues 1-21 with Lys 4 monomethylated) substrate was purchased from Anaspec (Fremont, Calif.). Enzymatic activity was assessed using the AlphaLISA technology from Perkin Elmer Life Sciences (Waltham, Mass.). 2.5 μL of compound solution and 5 μL of LSD1 solutions in the assay buffer (50 mM Tris, pH 9.0, 50 mM NaCl with 0.01% Tween20 and 1 mM DTT added right before the assay) were added into a white low volume 384 well microtiter plate. This mixture solution was incubated for 15 minutes with gentle shaking at room temperature. Demethylation reaction was initiated by adding 2.5 μL of Biotin-H3K4Me peptide substrate solution in the assay buffer. Final concentrations of LSD1, Biotin-H3K4Me peptide substrate, and DMSO were 4 nM, 80 nM, and 1%, respectively. The reaction was allowed to proceed for 60 minutes in dark with gentle shaking at room temperature, after which 5 μL of Anti-H3K4 AlphaLISA acceptor beads in detection buffer from the manufacturer was added into the reaction mixture followed by incubation for 60 minutes. 10 μL of Streptavidin labeled AlphaLISA donor beads in detection buffer was added into the mixture followed by 30-minute incubation. Final acceptor and donor beads concentrations were both at 10 μg/mL. Plates were read on a BMG CLARIOStar multimode plate reader from BMG Labtech (Ortenberg, Germany) with an excitation wavelength of 680 nm and emission wavelength of 615 nm. IC50 values of inhibitors were obtained by fitting the fluorescence intensity vs inhibitor concentrations in a sigmoidal dose-response curve (variable slope) with a non-linear regression using Prism 7 (La Jolla, Calif.).

Row | Compound | IC50
1 | CN1CC[C@H](Cn2cnc3c(-c4ccc(C#N)c(F)c4)c(-c4ccc5c(cnn5C)c4)ncc32)C1 [compound 16, (S)-2-fluoro-4-(6-(1-methyl-1H-indazol-5-yl)-3-((1-methylpyrrolidin-3-yl)methyl)-3H-imidazo[4,5-c]pyridin-7-yl)benzonitrile] | 0.028 µM
2 | Cn1ncc2cc(-c3ncc4c(ncn4CC4CCCNCC4)c3-c3ccc(C#N)cc3)ccc21 (centres unmarked) [compound 22, 4-(3-(azepan-4-ylmethyl)-6-(1-methyl-1H-indazol-5-yl)-3H-imidazo[4,5-c]pyridin-7-yl)benzonitrile] | 0.0162 µM
3 | Cn1ncc2cc(-c3ncc4c(ncn4C[C@H]4CCNC4)c3-c3ccc(C#N)cc3)ccc21 [compound 30, (S)-4-(6-(1-methyl-1H-indazol-5-yl)-3-(pyrrolidin-3-ylmethyl)-3H-imidazo[4,5-c]pyridin-7-yl)benzonitrile] | 0.0398 µM
4 | CN1CCC(Cn2cnc3c(-c4ccc(C#N)c(F)c4)c(-c4ccc5c(c4)CC(=O)N5C)ncc32)CC1 [compound 3, 2-fluoro-4-(6-(1-methyl-2-oxoindolin-5-yl)-3-((1-methylpiperidin-4-yl)methyl)-3H-imidazo[4,5-c]pyridin-7-yl)benzonitrile] | 0.22 µM
5 | Cn1ncc2cc(-c3ncc4c(ncn4CC4CCNCC4)c3-c3ccc(C#N)cc3)ccc21 [compound 20, 4-(6-(1-methyl-1H-indazol-5-yl)-3-(piperidin-4-ylmethyl)-3H-imidazo[4,5-c]pyridin-7-yl)benzonitrile] | 0.0137 µM
6 | CN1CCOc2ccc(-c3ncc4c(ncn4C[C@H]4CCNC4)c3-c3ccc(C#N)c(F)c3)cc21 [compound 29, (S)-2-fluoro-4-(6-(4-methyl-3,4-dihydro-2H-benzo[b][1,4]oxazin-6-yl)-3-(pyrrolidin-3-ylmethyl)-3H-imidazo[4,5-c]pyridin-7-yl)benzonitrile] | 0.047 µM
7 | CCn1ncc2cc(-c3ncc4c(ncn4CC4CCN(C)CC4)c3-c3ccc(C#N)cc3)ccc21 [compound 11, 4-(6-(1-ethyl-1H-indazol-5-yl)-3-((1-methylpiperidin-4-yl)methyl)-3H-imidazo[4,5-c]pyridin-7-yl)benzonitrile] | 0.116 µM
8 | CN1CCOc2cc(-c3ncc4c(ncn4CC4CCNC4)c3-c3ccc(C#N)cc3)ccc21 (centres unmarked) [compound 32, 4-(6-(4-methyl-3,4-dihydro-2H-benzo[b][1,4]oxazin-7-yl)-3-(pyrrolidin-3-ylmethyl)-3H-imidazo[4,5-c]pyridin-7-yl)benzonitrile] | 0.00567 µM
9 | CN1CCOc2cc(-c3ncc4c(ncn4CC4CCNCC4)c3-c3ccc(C#N)c(F)c3)ccc21 [compound 25, 2-fluoro-4-(6-(4-methyl-3,4-dihydro-2H-benzo[b][1,4]oxazin-7-yl)-3-(piperidin-4-ylmethyl)-3H-imidazo[4,5-c]pyridin-7-yl)benzonitrile] | 0.00801 µM
10 | CN1CCC(Cn2cnc3c(-c4ccc(C#N)cc4)c(-c4ccc5c(c4)OCO5)ncc32)CC1 [compound 14, 4-(6-(benzo[d][1,3]dioxol-5-yl)-3-((1-methylpiperidin-4-yl)methyl)-3H-imidazo[4,5-c]pyridin-7-yl)benzonitrile] | 0.0157 µM
11 | CN1CCOc2cc(-c3ncc4c(ncn4C[C@H]4CCNC4)c3-c3ccc(C#N)c(F)c3)ccc21 [compound 17, (S)-2-fluoro-4-(6-(4-methyl-3,4-dihydro-2H-benzo[b][1,4]oxazin-7-yl)-3-(pyrrolidin-3-ylmethyl)-3H-imidazo[4,5-c]pyridin-7-yl)benzonitrile] | 0.0121 µM
12 | CN1CCC(Cn2cnc3c(-c4ccc(C#N)cc4)c(-c4ccc5c(cnn5C)c4)ncc32)C1 (centres unmarked) [compound 31, 4-(6-(1-methyl-1H-indazol-5-yl)-3-((1-methylpyrrolidin-3-yl)methyl)-3H-imidazo[4,5-c]pyridin-7-yl)benzonitrile] | 0.0873 µM
13 | CN1CCC(Cn2cnc3c(-c4ccc(C#N)cc4)c(-c4ccc5nn(C)cc5c4)ncc32)CC1 [compound 13, 4-(6-(2-methyl-2H-indazol-5-yl)-3-((1-methylpiperidin-4-yl)methyl)-3H-imidazo[4,5-c]pyridin-7-yl)benzonitrile] | 0.115 µM
14 | CN1CCC(Cn2cnc3c(-c4ccc(C#N)cc4)c(-c4ccc5c(c4)OCCN5C)ncc32)C1 (centres unmarked) [compound 33, 4-(6-(4-methyl-3,4-dihydro-2H-benzo[b][1,4]oxazin-7-yl)-3-((1-methylpyrrolidin-3-yl)methyl)-3H-imidazo[4,5-c]pyridin-7-yl)benzonitrile] | 0.0295 µM
15 | CN1CCC(Cn2cnc3c(-c4ccc(C#N)c(F)c4)c(-c4ccc5c(c4)OCO5)ncc32)CC1 [compound 15, 4-(6-(benzo[d][1,3]dioxol-5-yl)-3-((1-methylpiperidin-4-yl)methyl)-3H-imidazo[4,5-c]pyridin-7-yl)-2-fluorobenzonitrile] | 0.0278 µM
16 | CN1CCC(Cn2cnc3c(-c4ccc(C#N)cc4)c(-c4ccc5c(cnn5C)c4)ncc32)CC1 [compound 6, 4-(6-(1-methyl-1H-indazol-5-yl)-3-((1-methylpiperidin-4-yl)methyl)-3H-imidazo[4,5-c]pyridin-7-yl)benzonitrile] | 0.0663 µM
17 | CN1CCC(Cn2cnc3c(-c4ccc(C#N)cc4)c(-c4ccc5c(c4)OCCN5C)ncc32)CC1 [compound 10, 4-(6-(4-methyl-3,4-dihydro-2H-benzo[b][1,4]oxazin-7-yl)-3-((1-methylpiperidin-4-yl)methyl)-3H-imidazo[4,5-c]pyridin-7-yl)benzonitrile] | 0.0531 µM
18 | CN1CCC(Cn2cnc3c(-c4ccc(C#N)cc4)c(-c4ccc(C#N)cc4)ncc32)CC1 [compound 9, 4,4′-(3-((1-methylpiperidin-4-yl)methyl)-3H-imidazo[4,5-c]pyridine-6,7-diyl)dibenzonitrile] | > 1 µM
19 | CN1CCC(Cn2cnc3c(-c4ccc(C#N)cc4)c(-c4ccc5c(ccn5C)c4)ncc32)CC1 [compound 7, 4-(6-(1-methyl-1H-indol-5-yl)-3-((1-methylpiperidin-4-yl)methyl)-3H-imidazo[4,5-c]pyridin-7-yl)benzonitrile] | 0.068 µM
20 | CN1CCC(Cn2cnc3c(-c4ccc(C#N)c(F)c4)c(-c4ccc5c(c4)OCCN5C)ncc32)CC1 [compound 8, 2-fluoro-4-(6-(4-methyl-3,4-dihydro-2H-benzo[b][1,4]oxazin-7-yl)-3-((1-methylpiperidin-4-yl)methyl)-3H-imidazo[4,5-c]pyridin-7-yl)benzonitrile] | 0.0162 µM
21 | CN1CCC(Cn2cnc3c(-c4ccc(C#N)c(F)c4)c(-c4ccc5nn(C)cc5c4)ncc32)CC1 [compound 12, 2-fluoro-4-(6-(2-methyl-2H-indazol-5-yl)-3-((1-methylpiperidin-4-yl)methyl)-3H-imidazo[4,5-c]pyridin-7-yl)benzonitrile] | 0.0976 µM
22 | Cc1nc2cc(-c3ncc4c(ncn4CC4CCN(C)CC4)c3-c3ccc(C#N)c(F)c3)ccc2s1 [compound 5, 2-fluoro-4-(6-(2-methylbenzo[d]thiazol-5-yl)-3-((1-methylpiperidin-4-yl)methyl)-3H-imidazo[4,5-c]pyridin-7-yl)benzonitrile] | 0.928 µM
23 | CN1CC[C@H](Cn2cnc3c(-c4ccc(C#N)c(F)c4)c(-c4ccc5c(c4)OCCN5C)ncc32)C1 [compound 18, (S)-2-fluoro-4-(6-(4-methyl-3,4-dihydro-2H-benzo[b][1,4]oxazin-7-yl)-3-((1-methylpyrrolidin-3-yl)methyl)-3H-imidazo[4,5-c]pyridin-7-yl)benzonitrile] | 0.012 µM
